From US11773078B2, “Furin inhibitors” (Glaxosmithkline Intellectual Property Development Limited, priority 2018, dated 2023)
Structures can show the parent of a compound that is named as a salt.

Key:
[1] = molecular target: T1, Furin (108-574-Tev-Flag-His) enzyme (Homo sapiens, UniProt P09958); experiment: Furin enzyme assay; assay type: biochemical; conditions: for IC50: read-out: furin enzyme pIC50 (converted)
T1 construct: Furin (108-574-Tev-Flag-His) enzyme was expressed and purified from CHO cells; TEV cleavage site (C); FLAG (C); His (C); made in house; host or cells: CHO cells
Method: Reactions were performed in black 384-well polystyrene low volume plates (Greiner). Furin (108-574-Tev-Flag-His) enzyme was expressed and purified from CHO cells. Compounds of the invention were dissolved in DMSO (1.0 mM) and serially diluted 1 to 3 with DMSO through eleven dilutions to provide a final compound concentration range from 0.00017 to 10 μM. 0.05 μL of each concentration was transferred to the corresponding well of an assay plate, and then 5 μL of 40 pM furin enzyme in assay buffer (100 mM HEPES pH7.5, 1 mM CaCl2 and 0.005% Triton X-100) was added using a Multidrop Combi (Thermo) to the compound plates, and mixed by inversion. […] The plates were centrifuged at 500×g for 1 minute and incubated at room temperature for two hours. Enzyme inhibition is then quantified using an Envision instrument (PerkinElmer).
Data were analyzed using AbaseXE 7.3, utilizing a four-parameter curve fit equation. The following values were used to define limits and/or constraints for each of the four parameters: • Minimum—limit −10 to 10 • Maximum—90 to 110 • Slope—limit 0.5 to 2.0 • pXC50 confidence interval—10
Raw counts obtained from the respective plate reader (Perkin Elmer) were captured for data analysis. Curves were generated using the equation: Y=A+[(B−A)/(1+(10^C/x)^D)] • where: A=minimum response • B=maximum response • C=log 10*XC50 • D=slope factor • x=log 10 compound concentration [M]
The results were recorded as pXC50 values (−C in the above equation)

[2] = molecular target: T2, furin (endogenous protease) in U20S cells (Homo sapiens, UniProt P09958); experiment: Furin cell-based assay (image-based, Golgi-targeted GFP with BMP10 furin/PCSK cleavage site); conditions: 24-hour incubation, read-out: furin golgi cell pXC50 (converted);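 note: Read-out is mean GFP fluorescence of Golgi puncta per cell by high-content imaging, retained when furin inhibited, over an eleven-point 0.00017–10 µM series, four-parameter fit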
T2 construct: the endogenous protease cleaves GFP; endogenous in cells; host or cells: U2OS cells transduced with a BacMam reporter
T2 sequence (P09958 108-794): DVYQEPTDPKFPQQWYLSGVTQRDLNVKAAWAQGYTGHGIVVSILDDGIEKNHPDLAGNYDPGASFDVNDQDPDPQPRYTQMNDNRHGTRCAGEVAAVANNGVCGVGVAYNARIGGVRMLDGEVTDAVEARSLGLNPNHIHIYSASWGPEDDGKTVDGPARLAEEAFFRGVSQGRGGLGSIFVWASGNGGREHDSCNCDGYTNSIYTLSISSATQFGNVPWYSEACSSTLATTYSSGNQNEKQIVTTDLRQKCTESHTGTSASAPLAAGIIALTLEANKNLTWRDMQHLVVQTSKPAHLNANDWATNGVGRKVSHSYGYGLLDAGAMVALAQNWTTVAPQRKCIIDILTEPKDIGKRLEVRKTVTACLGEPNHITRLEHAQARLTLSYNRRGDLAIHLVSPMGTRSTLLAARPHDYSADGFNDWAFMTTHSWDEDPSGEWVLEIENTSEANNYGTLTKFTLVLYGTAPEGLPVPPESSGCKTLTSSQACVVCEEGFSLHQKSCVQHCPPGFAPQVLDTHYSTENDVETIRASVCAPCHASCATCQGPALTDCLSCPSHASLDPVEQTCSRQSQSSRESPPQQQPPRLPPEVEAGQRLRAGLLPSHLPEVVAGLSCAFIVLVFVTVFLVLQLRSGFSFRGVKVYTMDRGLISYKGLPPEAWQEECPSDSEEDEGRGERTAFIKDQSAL

T1 sequence (P09958 108-574): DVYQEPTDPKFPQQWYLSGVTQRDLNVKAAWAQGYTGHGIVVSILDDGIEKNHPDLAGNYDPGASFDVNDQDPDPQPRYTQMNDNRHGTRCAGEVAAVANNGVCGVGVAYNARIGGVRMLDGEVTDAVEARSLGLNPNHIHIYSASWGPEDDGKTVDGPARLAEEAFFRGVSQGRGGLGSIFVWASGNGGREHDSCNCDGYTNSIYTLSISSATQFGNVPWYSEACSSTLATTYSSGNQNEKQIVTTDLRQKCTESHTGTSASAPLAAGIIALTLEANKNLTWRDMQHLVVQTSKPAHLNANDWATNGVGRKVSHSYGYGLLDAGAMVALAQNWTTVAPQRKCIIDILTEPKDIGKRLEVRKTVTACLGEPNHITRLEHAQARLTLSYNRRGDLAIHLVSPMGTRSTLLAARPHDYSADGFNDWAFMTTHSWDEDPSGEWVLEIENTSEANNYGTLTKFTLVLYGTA

furin enzyme pIC50 [1]	EC50 [2] [nM]	IC50 [1] [nM]	SMILES
9.3	1.58	–	CC(=O)NCC1CCN(Cc2cc(Oc3ccc(N4CC[C@@H](N)[C@@H](F)C4)nc3)nc(-c3cc(Cl)cc(Cl)c3)c2)CC1 (relative stereo) [Example 182]
–	15.8	0.251	CC(=O)NCC1CCN(Cc2cc(Oc3ccc(N4C[C@H](CN)[C@@H](O)C4)nc3)nc(-c3cc(Cl)cc(Cl)c3)c2)CC1 (relative stereo) [Example 184, N-((1-((2-((6-(trans-3-(Aminomethyl)-4-hydroxypyrrolidin-1-yl)pyridin-3-yl)oxy)-6-(3,5-dichlorophenyl)pyridin-4-yl)methyl)piperidin-4-yl)methyl)acetamide]
8.3	1.58	–	CNC(=O)CN1CCN(Cc2cc(Oc3ccc(N4CCNCC4)nc3)nc(-c3cc(Cl)cc(Cl)c3)c2)CC1 [Example 1, 2-(4-((2-(3,5-Dichlorophenyl)-6-((6-(piperazin-1-yl)pyridin-3-yl)oxy)pyridin-4-yl)methyl)piperazin-1-yl)-N-methylacetamide, 5 hydrochloride]
8.8	39.8	–	CC(=O)NCC1(O)CCN(Cc2cc(Oc3ccc(N4CCNCC4)nc3)nc(-c3cc(Cl)cc(Cl)c3)c2)CC1 [Example 2, N-((1-((2-(3,5-Dichlorophenyl)-6-((6-(piperazin-1-yl)pyridine-3-yl)oxy)pyridin-4-yl)methyl)-4-hydroxypiperidin-4-yl)methyl)acetamide]
8.9	50.1	–	O=C(O)CCC1CCN(Cc2cc(Oc3ccc(N4CCNCC4)nc3)nc(-c3cc(Cl)cc(Cl)c3)c2)CC1 [Example 3, 3-(1-((2-(3,5-Dichlorophenyl)-6-((6-(piperazin-1-yl)pyridin-3-yl)oxy)pyridin-4-yl)methyl)piperidin-4-yl)propanoic acid, 4 hydrochloride]
8.7	31.6	–	O=C(O)CC1CCN(Cc2cc(Oc3ccc(N4CCNCC4)nc3)nc(-c3cc(Cl)cc(Cl)c3)c2)CC1 [Example 4, 2-(1-((2-(3,5-Dichlorophenyl)-6-((6-(piperazin-1-yl)pyridin-3-yl)oxy)pyridin-4-yl)methyl)piperidin-4-yl)acetic acid, 4 hydrochloride]
9.1	63.1	–	CNC(=O)NCC1(O)CCN(Cc2cc(Oc3ccc(N4CCNCC4)nc3)nc(-c3cc(Cl)cc(Cl)c3)c2)CC1 [Example 5, 1-((1-((2-(3,5-Dichlorophenyl)-6-((6-(piperazin-1-yl)pyridin-3-yl)oxy)pyridin-4-yl)methyl)-4-hydroxypiperidin-4-yl)methyl)-3-methylurea, 4 hydrochloride]
8.5	7.94	–	COC(=O)NCC1(O)CCN(Cc2cc(Oc3ccc(N4CCNCC4)nc3)nc(-c3cc(Cl)cc(Cl)c3)c2)CC1 [Example 6, Methyl ((1-((2-(3,5-dichlorophenyl)-6-((6-(piperazin-1-yl)pyridin-3-yl)oxy)pyridin-4-yl)methyl)-4-hydroxypiperidin-4-yl)methyl)carbamate, 4 hydrochloride]
9.2	79.4	–	O=S(=O)(O)CCC1CCN(Cc2cc(Oc3ccc(N4CCNCC4)nc3)nc(-c3cc(Cl)cc(Cl)c3)c2)CC1 [Example 7, 2-(1-((2-(3,5-Dichlorophenyl)-6-((6-(piperazin-1-yl)pyridin-3-yl)oxy)pyridin-4-yl)methyl)piperidin-4-yl)ethanesulfonic acid, 4 hydrochloride]
8.9	200	–	O=S(=O)(O)CC1CCN(Cc2cc(Oc3ccc(N4CCNCC4)nc3)nc(-c3cc(Cl)cc(Cl)c3)c2)CC1 [Example 8, (1-((2-(3,5-Dichlorophenyl)-6-((6-(piperazin-1-yl)pyridin-3-yl)oxy)pyridin-4-yl)methyl)piperidin-4-yl)methanesulfonic acid, 4 hydrochloride]
9.2	7.94	–	CC(=O)NCC1CCN(Cc2cc(Oc3ccc(N4CCNCC4)nc3)nc(-c3cc(Cl)cc(Cl)c3)c2)CC1 [Example 9, N-((1-((2-(3,5-Dichlorophenyl)-6-((6-(piperazin-1-yl)pyridin-3-yl)oxy)pyridin-4-yl)methyl)piperidin-4-yl)methyl)acetamide, 4 hydrochloride]
9.1	7.94	–	CC(=O)NCC1CCN(Cc2cc(Oc3ccc(N4CCN(CCC(N)=O)CC4)nc3)nc(-c3cc(Cl)cc(Cl)c3)c2)CC1 [Example 13, hydrochloride]
6	–	–	CC(=O)NCC1CCN(Cc2cc(Oc3ncc(N)cn3)cc(-c3cc(Cl)cc(Cl)c3)c2)CC1 [Example 43, N-((1-((5-((5-aminopyrimidin-2-yl)oxy)-3′,5′-dichloro-[1,1′-biphenyl]-3-yl)methyl)piperidin-4-yl)methyl)acetamide]
–	–	0.251	COC(=O)NC(=O)CCN1CCN(c2ncc(Oc3cc(CN4CCC(CNC(C)=O)CC4)cc(-c4cc(Cl)cc(Cl)c4)n3)cn2)CC1 [Example 172, methyl (3-(4-(5-((4-((4-(acetamidomethyl)piperidin-1-yl)methyl)-6-(3,5-dichlorophenyl)pyridin-2-yl)oxy)pyrimidin-2-yl)piperazin-1-yl)propanoyl)carbamate]
9.2	–	–	COC(=O)NC(=O)CCN1CCN(c2ncc(Oc3cc(CN4CCC(CNC(C)=O)CC4)cc(-c4cc(Cl)cc(Cl)c4)n3)cn2)CC1 [Example 175, methyl (3-(4-(5-((4-((4-(acetamidomethyl)piperidin-1-yl)methyl)-6-(3,5-dichlorophenyl)pyridin-2-yl)oxy)pyrimidin-2-yl)piperazin-1-yl)propanoyl)carbamate]
–	6.31	–	CNC(=O)NCC1CCN(Cc2cc(Oc3ccc(N4CCN(CCCS(N)(=O)=O)CC4)nc3)nc(-c3cc(Cl)cc(Cl)c3)c2)CC1 [Example 260, 3-(4-(5-((6-(3,5-dichlorophenyl)-4-((4-((3-methylureido)methyl)piperidin-1-yl)methyl)pyridin-2-yl)oxy)pyridin-2-yl)piperazin-1-yl)propane-1-sulfonamide]
–	15.8	–	CN1CCN(c2ncc(Oc3cc(CN4CC[C@@H]5[C@H](CC4)[C@H]5C(=O)O)cc(-c4cc(Cl)cc(Cl)c4)n3)cn2)CC1 [Example 321, (1R,7S,8r)-4-((2-(3,5-dichlorophenyl)-6-((2-(4-methylpiperazin-1-yl)pyrimidin-5-yl)oxy)pyridin-4-yl)methyl)-4-azabicyclo[5.1.0]octane-8-carboxylic acid]
–	31.6	–	C[C@H](CC1CCN(Cc2cc(Oc3ccc(N4CCN(C)CC4)nn3)nc(-c3cc(Cl)cc(Cl)c3)c2)CC1)C(=O)O [Example 364, (R)-3-(1-((2-(3,5-dichlorophenyl)-6-((6-(4-methylpiperazin-1-yl)pyridazin-3-yl)oxy)pyridin-4-yl)methyl)piperidin-4-yl)-2-methylpropanoic acid]
8.3	–	–	CN1CCN(c2cnc(Oc3nc(-c4cc(Cl)cc(Cl)c4)cc(CN4CCC(CC(=O)O)CC4)c3F)cn2)CC1 [Example 390, 2-(1-((6-(3,5-Dichlorophenyl)-3-fluoro-2-((5-(4-methylpiperazin-1-yl)pyrazin-2-yl)oxy)pyridin-4-yl)methyl)piperidin-4-yl)acetic acid]
